One series addresses rat mGlu5 receptors (Rattus norvegicus, UniProt P31424). Briefly: 'triple add' calcium mobilization assay, mGlu5 PAM/NAM/agonist modes. It counts as cell-based. Particulars: for fold increase in mGlu5 potency vs series 3 counterpart: dihydro analogue 4 vs corresponding analogue 3. On the technique in general: Calcium flux is commonly read through the fluorescence of an indicator in the cells.

For series [1], the target named is T1, mGlu3 (Homo sapiens, UniProt Q14832). As to the kind of experiment: cell-based.
In series [2] the test system is other mGlu receptors (mGlu1–4,6–8, except mGlu3). Briefly: selectivity profiling against the other mGlu receptors. The settings on record: read-out: other mGlu EC50; mGlu receptors other than mGlu5 and mGlu3. It counts as cell-based.
In another series the target is T2, CYP1A2 (Homo sapiens, UniProt P05177).
T2 sequence (P05177 1-516): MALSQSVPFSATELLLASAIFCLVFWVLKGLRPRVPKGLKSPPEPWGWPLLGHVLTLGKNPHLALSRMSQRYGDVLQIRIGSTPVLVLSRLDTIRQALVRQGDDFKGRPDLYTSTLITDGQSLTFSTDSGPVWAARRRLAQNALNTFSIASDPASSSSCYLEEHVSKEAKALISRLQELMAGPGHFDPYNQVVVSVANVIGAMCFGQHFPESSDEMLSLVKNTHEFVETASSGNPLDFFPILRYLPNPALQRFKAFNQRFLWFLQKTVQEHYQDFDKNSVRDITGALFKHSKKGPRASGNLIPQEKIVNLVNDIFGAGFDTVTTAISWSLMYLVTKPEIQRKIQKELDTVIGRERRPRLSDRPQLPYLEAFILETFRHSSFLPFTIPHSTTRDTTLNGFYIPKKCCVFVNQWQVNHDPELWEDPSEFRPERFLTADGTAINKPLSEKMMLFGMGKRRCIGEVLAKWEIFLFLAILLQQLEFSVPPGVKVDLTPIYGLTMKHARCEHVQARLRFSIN
Briefly: CYP inhibition cocktail assay using HLM and known substrates.

A further series has as its target CYP2D6 (Homo sapiens, UniProt P10635). The description is as above.
The next series has as its target CYP3A4 (Homo sapiens, UniProt P08684). The description is as above.
Another series addresses CYP2C9 (Homo sapiens, UniProt P11712). The description is as above.
Series [3] in a line: solubility in fasted simulated intestinal fluid. It counts as physicochemical. Particulars: fasted simulated intestinal fluid (FaSSIF), pH 7.2, fassif.
The test system of another series is dogs. As to the kind of experiment: adverse effects in in vivo PK studies in dogs. On the set-up: species or system dog. Particulars: 0.5 mg/mL i.v.
Series [4] concerns amphetamine-induced hyperlocomotion. As to the kind of experiment: reversal of amphetamine-induced hyperlocomotion. Particulars: rat.
Series [5] concerns the target T1, mGlu3. The settings on record: NAM.
The next series is described as follows: in vivo PK study in rats. Particulars: rat.
Another series deals with rats. Briefly: adverse effects in rats. The format is in vivo, rat.

In brackets after ≈: the same amount, converted by molar mass.

Sequence of rat mGlu5 receptors (P31424 21-1203): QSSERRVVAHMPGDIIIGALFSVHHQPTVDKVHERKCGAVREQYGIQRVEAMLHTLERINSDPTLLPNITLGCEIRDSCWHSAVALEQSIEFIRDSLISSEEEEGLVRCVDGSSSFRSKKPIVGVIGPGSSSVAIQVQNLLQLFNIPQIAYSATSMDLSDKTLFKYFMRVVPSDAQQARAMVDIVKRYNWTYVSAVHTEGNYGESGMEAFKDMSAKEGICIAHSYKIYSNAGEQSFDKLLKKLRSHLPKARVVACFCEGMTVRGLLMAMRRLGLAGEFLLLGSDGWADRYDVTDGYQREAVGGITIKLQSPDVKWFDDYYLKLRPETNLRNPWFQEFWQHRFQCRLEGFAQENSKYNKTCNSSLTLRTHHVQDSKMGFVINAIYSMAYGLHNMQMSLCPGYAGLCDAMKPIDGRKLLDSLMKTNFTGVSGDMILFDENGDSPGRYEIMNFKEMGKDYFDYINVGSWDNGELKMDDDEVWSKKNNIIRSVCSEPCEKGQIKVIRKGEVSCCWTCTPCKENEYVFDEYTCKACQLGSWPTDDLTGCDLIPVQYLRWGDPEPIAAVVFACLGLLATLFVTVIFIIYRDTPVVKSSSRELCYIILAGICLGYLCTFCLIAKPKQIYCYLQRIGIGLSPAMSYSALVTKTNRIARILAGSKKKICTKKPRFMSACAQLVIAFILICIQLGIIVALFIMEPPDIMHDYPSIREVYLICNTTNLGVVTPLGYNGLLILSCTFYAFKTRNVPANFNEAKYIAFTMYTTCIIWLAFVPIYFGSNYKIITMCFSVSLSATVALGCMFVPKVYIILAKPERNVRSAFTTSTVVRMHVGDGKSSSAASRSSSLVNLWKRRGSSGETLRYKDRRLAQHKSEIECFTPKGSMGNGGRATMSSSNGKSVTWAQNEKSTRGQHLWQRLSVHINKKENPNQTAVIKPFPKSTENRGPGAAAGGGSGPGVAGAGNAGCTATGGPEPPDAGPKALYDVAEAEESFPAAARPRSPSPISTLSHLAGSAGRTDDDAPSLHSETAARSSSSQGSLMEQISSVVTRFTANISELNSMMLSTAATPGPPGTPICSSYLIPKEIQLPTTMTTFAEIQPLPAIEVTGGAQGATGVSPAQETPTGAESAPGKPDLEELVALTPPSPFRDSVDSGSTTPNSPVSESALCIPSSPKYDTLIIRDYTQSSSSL
T1 sequence (Q14832 23-879): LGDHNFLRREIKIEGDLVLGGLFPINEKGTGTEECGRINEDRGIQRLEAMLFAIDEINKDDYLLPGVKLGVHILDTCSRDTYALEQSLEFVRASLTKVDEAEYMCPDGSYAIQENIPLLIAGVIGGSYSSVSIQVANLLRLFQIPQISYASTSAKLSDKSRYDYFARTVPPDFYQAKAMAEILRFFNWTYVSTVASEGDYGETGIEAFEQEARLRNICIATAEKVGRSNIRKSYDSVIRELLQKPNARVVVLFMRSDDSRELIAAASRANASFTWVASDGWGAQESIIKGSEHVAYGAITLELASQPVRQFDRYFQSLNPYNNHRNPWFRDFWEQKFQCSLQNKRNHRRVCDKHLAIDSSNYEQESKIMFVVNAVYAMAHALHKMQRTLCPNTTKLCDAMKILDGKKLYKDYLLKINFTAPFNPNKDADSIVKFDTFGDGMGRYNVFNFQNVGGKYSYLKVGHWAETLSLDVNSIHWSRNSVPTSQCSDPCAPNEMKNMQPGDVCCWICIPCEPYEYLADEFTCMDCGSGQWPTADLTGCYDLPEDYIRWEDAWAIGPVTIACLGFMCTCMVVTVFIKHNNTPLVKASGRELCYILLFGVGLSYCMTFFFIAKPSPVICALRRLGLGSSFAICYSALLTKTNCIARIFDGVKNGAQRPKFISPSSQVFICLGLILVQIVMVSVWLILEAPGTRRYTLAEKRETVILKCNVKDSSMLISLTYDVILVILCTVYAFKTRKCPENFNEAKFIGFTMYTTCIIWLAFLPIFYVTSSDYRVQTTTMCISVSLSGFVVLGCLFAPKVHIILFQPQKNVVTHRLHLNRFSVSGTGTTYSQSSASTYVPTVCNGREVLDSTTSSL
Sequence of CYP3A4 (P08684 whole entry): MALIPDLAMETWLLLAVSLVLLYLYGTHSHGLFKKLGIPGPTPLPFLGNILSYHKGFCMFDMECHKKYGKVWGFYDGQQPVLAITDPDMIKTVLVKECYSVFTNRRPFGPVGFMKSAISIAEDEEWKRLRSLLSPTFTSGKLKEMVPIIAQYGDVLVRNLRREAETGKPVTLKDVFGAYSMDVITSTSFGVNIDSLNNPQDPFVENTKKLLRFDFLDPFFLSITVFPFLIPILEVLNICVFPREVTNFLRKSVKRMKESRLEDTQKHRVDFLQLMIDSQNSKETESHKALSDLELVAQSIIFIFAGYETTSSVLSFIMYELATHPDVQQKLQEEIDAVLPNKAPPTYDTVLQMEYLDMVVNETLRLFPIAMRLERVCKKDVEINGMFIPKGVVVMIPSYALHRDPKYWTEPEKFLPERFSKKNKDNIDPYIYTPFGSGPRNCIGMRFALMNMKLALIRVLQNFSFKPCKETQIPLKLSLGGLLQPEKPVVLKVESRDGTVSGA
Sequence of CYP2C9 (P11712 whole entry): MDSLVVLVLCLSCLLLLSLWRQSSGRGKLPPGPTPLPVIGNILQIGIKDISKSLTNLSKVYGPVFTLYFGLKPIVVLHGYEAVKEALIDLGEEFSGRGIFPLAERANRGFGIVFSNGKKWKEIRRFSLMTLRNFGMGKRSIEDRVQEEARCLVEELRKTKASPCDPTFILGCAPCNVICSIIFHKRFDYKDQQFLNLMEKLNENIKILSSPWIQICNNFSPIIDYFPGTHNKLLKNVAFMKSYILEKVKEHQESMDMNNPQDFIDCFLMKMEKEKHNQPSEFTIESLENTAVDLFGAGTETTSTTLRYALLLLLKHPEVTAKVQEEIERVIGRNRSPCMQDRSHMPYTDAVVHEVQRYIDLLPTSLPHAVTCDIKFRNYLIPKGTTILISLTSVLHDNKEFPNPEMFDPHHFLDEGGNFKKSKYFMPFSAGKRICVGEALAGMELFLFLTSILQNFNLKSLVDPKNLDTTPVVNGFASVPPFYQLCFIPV
Sequence of CYP2D6 (P10635 whole entry): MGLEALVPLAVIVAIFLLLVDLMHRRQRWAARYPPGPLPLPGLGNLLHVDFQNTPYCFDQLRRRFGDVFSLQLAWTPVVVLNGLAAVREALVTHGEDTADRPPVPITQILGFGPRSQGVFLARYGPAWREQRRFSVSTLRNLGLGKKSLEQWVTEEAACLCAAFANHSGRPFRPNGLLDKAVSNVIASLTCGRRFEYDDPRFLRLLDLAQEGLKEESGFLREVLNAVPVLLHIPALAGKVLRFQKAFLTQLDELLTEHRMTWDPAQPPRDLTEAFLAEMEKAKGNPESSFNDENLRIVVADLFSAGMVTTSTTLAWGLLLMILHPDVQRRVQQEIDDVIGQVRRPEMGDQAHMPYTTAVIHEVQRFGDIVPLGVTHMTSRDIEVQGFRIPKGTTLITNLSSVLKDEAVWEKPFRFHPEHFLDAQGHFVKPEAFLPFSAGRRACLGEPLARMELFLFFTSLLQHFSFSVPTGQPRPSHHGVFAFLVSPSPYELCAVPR

In the case of `O=C1N(c2cccc(F)c2)CCc2nc(COc3ccccc3)cn21` [4b], at rat mGlu5 receptors, the “fold increase in mGlu5 potency vs series 3 counterpart” value (“fold increase in mGlu5 potency” for short) is recorded as 1.8–2.4 fold.

As to `Cc1cc(N2CCc3nc(COc4ccccc4)cn3C2=O)ccc1F` [4c], the “fold increase in mGlu5 potency” value at rat mGlu5 receptors is given as 1.8–2.4 fold.

As to `O=C1N(c2ccc(F)cc2)CCc2nc(COc3cccc(F)c3)cn21` [4h], the “fold increase in mGlu5 potency” value on rat mGlu5 receptors is no more than 3.3 fold.

For `O=c1n(-c2ccc(F)cc2)ccc2nc(COc3ccccc3)cn12` [3e], the figures for the EC50 (on mGlu3 [1]; in series [2]) were 0.63 µM and greater than 10 µM, respectively. For the same compound, the IC50 against CYP1A2 was 9.3 µM; at CYP2D6 it was greater than 20 µM; at CYP3A4 it was greater than 20 µM; on CYP2C9, greater than 20 µM.

As for `O=C1N(c2ccc(F)cc2)CCc2nc(COc3ccc(F)cc3)cn21` [4i], on rat mGlu5 receptors, the “fold increase in mGlu5 potency” value was no more than 3.3 fold.

With `O=C1N(c2ccc(F)cc2)CCc2nc(COc3ccccc3)cn21` [4a], the solubility in series [3] is 6 µg/mL (≈ 17.8 µM). Also, the “CNS-mediated side effects in PK studies” value in the series with dogs is on record as “dizziness”. For the same compound, the EC50 is 0.29 µM on mGlu3 [1] and greater than 10 µM in series [2]. For the same compound, in series [4], the “lowest active oral dose, reversal of AIH” value came to 3 mg/kg. The “mGlu3 % Glu Max” value on mGlu3 [5] turned out to be 3%. The compound also showed a clearance in the series “in vivo PK study in rats” (in vivo, 1 mg/kg) of 23.3 mL/min/kg. Moreover, the “brain AUC” value in “in vivo PK study in rats” (0.5-7.0 h) amounted to 12.7 µM-h. The “CNS-mediated side effects, modified Irwin neurological test battery” value in the series on rats (120 mg/kg) was “pro-convulsive behavior”. Further, in the series on rats (up to 100 mg/kg p.o.), the “adverse effects in PK and pharmacological experiments” value is on record as “no significant adverse effects”. Besides, at rat mGlu5 receptors (up to the highest concentration tested of 30 µM), the mGlu5 agonistic activity result is “lack of mGlu5 agonistic activity”.

One may read the EC50 as the concentration at which the effect is half-maximal. The term IC50 denotes the concentration at which inhibition is half-maximal. Read a low IC50 as higher potency. For orientation: solubility means the dissolved amount per volume that the medium holds. The term clearance denotes the volume of plasma or blood freed of the substance per unit of time. A higher clearance goes with efficient removal.

Source of the values: article PMC4399811 (Bioorganic & medicinal chemistry letters, 2015).
